The values that follow come from patent publication US8017585B2, “CXCR4 antagonist and use thereof” (priority 2002, dated 2011).

In experiment [1] the test system is SUP-T1 cells. The experiment is described as follows: Inhibition of CXCL12-induced T-cell derived leukemia cell migration (Transwell). The format is cell-based, human. The following applies: 10 nM of the antagonist; 30 nM CXCL12; 4 hours. The protocol:
30 nM of CXCL12 (R&D System Company) and 600 μL/well of buffer-A (0.1% bovine serum albumin, DMEM (GibcoBRL) containing 12 mM HEPES) containing the test compound were added to the lower chamber of Transwell filter (polycarbonate filter, 8 μm diameter, Costar Company). The test compound and human cell-derived leukemia SUP-T1 cells (purchased from American Tissue Culture Collection), and 100 μL/well of buffer A containing 2×10^6 cells/mL were added to the upper chamber. After 4 hours' incubation at 37° C. in 5% CO2 incubator, the number of the cells moved to the lower chamber was counted by Coulter counter. Control (−) indicates the migration when CXCL12 was not added. Control (+) indicates the migration when CXCL12 was added. By adding CXCL12, the migration of SUP-T1 cells was enhanced. This CXCL12-induced migration of SUP-T1 cells was inhibited by 10 nM of the antagonist, 4Fbenzoyl-TN-14003. From the foregoing, 4Fbenzoyl-TN-14003, by inhibiting the movement of T-cells at low concentrations, is considered to be useful as an inhibitory drug for chronic rheumatoid arthritis.

The subject of experiment [2] is human breast cancer MDA-MB-231 cells. As to the kind of experiment: Inhibition of CXCL12-induced breast cancer cell migration (Transwell). In kind it is cell-based. Particulars: 10 nM of the antagonist; 100 nM CXCL12; 15 hours. The protocol: Transwell filter (polycarbonate filter, 8 μm diameter, Costar Company) was treated at 37° C. for 6 hours in 10 μg/mL fibronectin solution and air-dried. 100 nM of CXCL12 (R&D System Company) and 600 μL/well of buffer-A (0.1% bovine serum albumin, DMEM (GibcoBRL) containing 12 mM HEPES) containing the test compound were added to the lower chamber of the Transwell. The test compound and human breast cancer MDA-MB-231 cells (purchased from American Tissue Culture Collection), and 100 μL/well of buffer A containing 2×10^6 cells/mL were added to the upper chamber. […] Cutting off the filter part, adding 0.1 M sodium citrate/50% ethanol solution, and eluting crystal violet absorption at 550 nm was measured. […]
After 15 hours' incubation at 37° C. in 5% CO2 incubator, the upper surface of the filter was wiped and the cell was removed, and then the cell on the lower surface of the filter was fixed and stained with 25% methanol solution containing 0.5% crystal violet (Wako Pure Chemical Ind.), washed by distilled water and air-dried. Cutting off the filter part, adding 0.1 M sodium citrate/50% ethanol solution, and eluting crystal violet absorption at 550 nm was measured. […]

Bridge positions count the residues as written; N and C are the ends. Square brackets hold non-standard residues; d marks the D form. Peptide text beside a SMILES is read from it. * marks the point of attachment. 2Nal = N[C@@H](Cc1ccc2ccccc2c1)C(=O)O; Benzoyl(4-F) = O=C(c1ccc(F)cc1)*; Cit = NC(=O)NCCC[C@H](N)C(=O)O

Take `N=C(N)NCCC[C@H](NC(=O)[C@@H]1CSSC[C@H](NC(=O)[C@H](Cc2ccc3ccccc3c2)NC(=O)[C@H](CCCNC(=N)N)NC(=O)[C@H](CCCNC(=N)N)NC(=O)c2ccc(F)cc2)C(=O)N[C@@H](Cc2ccc(O)cc2)C(=O)N[C@@H](CCCNC(N)=O)C(=O)N[C@@H](CCCCN)C(=O)N[C@H](CCCCN)C(=O)N2CCC[C@H]2C(=O)N[C@@H](Cc2ccc(O)cc2)C(=O)N[C@@H](CCCNC(=N)N)C(=O)N[C@@H](CCCNC(N)=O)C(=O)N1)C(N)=O` [4F-benzoyl-TN14003, 4F-benzoyl-Arg-Arg-Nal-Cys-Tyr-Cit-Lys-DLys-Pro-Tyr-Arg-Cit-Cys-Arg-NH2] ({Benzoyl(4-F)}-RR[2Nal]CY[Cit]K[dK]PYR[Cit]CR-NH2; disulfide 4-13): the “CXCL12-induced migration of SUP-T1 cells” value in experiment [1] is given as “inhibited”. In addition, the “CXCL12-induced migration of MDA-MB-231 cells” value in experiment [2] is recorded as “inhibited”.
